Data as given in ChEMBL document CHEMBL1201862, “PubChem BioAssay data set” (2004).
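Growth conditions: 96-well plates. Treatment: test compound, 48 hours, 5 concentrations. Analysis: linear interpolation between bracketing concentrations; unreached endpoints set to highest concentration. At the GI50, growth is halved.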 Calls of active or inactive are those of the source. No stated cut-off is given here; in the data, active = GI50 up to about 1.1 µM and inactive = higher.

Assays:
Experiment in all cases: NCI-60 cell line screen, 48 h
786-0 = tested on: 786-0
A498 = tested on: A498
CCRF-CEM = tested on: CCRF-CEM
DU-145 = tested on: DU-145
EKVX = tested on: EKVX
HCT-116 = tested on: HCT-116
HOP-62 = tested on: HOP-62
HT-29 = tested on: HT-29
Hs-578T = tested on: Hs-578T
K562 = tested on: K562
MOLT-4 = tested on: MOLT-4
NCI-H23 = tested on: NCI-H23
RPMI-8226 = tested on: RPMI-8226
T47D = tested on: T47D
UACC-257 = tested on: UACC-257
UO-31 = tested on: UO-31
NCI-H522 = tested on: NCI-H522

| Structure (SMILES) | GI50 (786-0) | GI50 (A498) | GI50 (CCRF-CEM) | GI50 (DU-145) | GI50 (EKVX) | GI50 (HCT-116) | GI50 (HOP-62) | GI50 (HT-29) | GI50 (Hs-578T) | GI50 (K562) | GI50 (MOLT-4) | GI50 (NCI-H23) | GI50 (RPMI-8226) | GI50 (T47D) | GI50 (UACC-257) | GI50 (UO-31) | GI50 (NCI-H522) |
| --- | --- | --- | --- | --- | --- | --- | --- | --- | --- | --- | --- | --- | --- | --- | --- | --- | --- |
| CCCC1C2=C(C(=O)OC2=O)C2C(CC)CC3=C(C(=O)OC3=O)C12 (configuration not stated) | > 100 µM (inactive) | > 100 µM (inactive) | > 100 µM (inactive) | > 100 µM (inactive) | > 100 µM (inactive) | > 100 µM (inactive) | > 100 µM (inactive) | > 100 µM (inactive) | 18.4 µM (inactive) | > 100 µM (inactive) | > 100 µM (inactive) | > 100 µM (inactive) | > 100 µM (inactive) | > 100 µM (inactive) | > 100 µM (inactive) | > 100 µM (inactive) |  |
| Cn1c(=S)c2nc(SCc3cccnc3)[nH]c2n(C)c1=O | > 100 µM (inactive) | > 100 µM (inactive) |  | > 100 µM (inactive) | > 100 µM (inactive) | > 100 µM (inactive) | > 100 µM (inactive) | > 100 µM (inactive) | 92 µM (inactive) | > 100 µM (inactive) | > 100 µM (inactive) | > 100 µM (inactive) | > 100 µM (inactive) | > 100 µM (inactive) | > 100 µM (inactive) | > 100 µM (inactive) | 82 µM (inactive) |
| COc1cc(C(=O)N(C(=S)OC23CC4CC(CC(C4)C2)C3)c2ccccc2)cc(OC)c1OC | 25.6 µM (inactive) | 24.9 µM (inactive) | 2.89 µM (inactive) | 58.9 µM (inactive) | 14.8 µM (inactive) | 16.1 µM (inactive) | 43.7 µM (inactive) | 17.7 µM (inactive) | 27.4 µM (inactive) | 2.75 µM (inactive) | 2.82 µM (inactive) | 28 µM (inactive) |  | 43.2 µM (inactive) | 26.4 µM (inactive) | 19.1 µM (inactive) | 3.95 µM (inactive) |
| CCOP(=O)(/C=C/n1cnc2c(=O)n(C(C)=O)c(N)nc21)OCC | > 100 µM (inactive) | > 100 µM (inactive) | > 100 µM (inactive) | > 100 µM (inactive) | > 100 µM (inactive) | > 100 µM (inactive) | > 100 µM (inactive) | > 100 µM (inactive) | > 100 µM (inactive) | > 100 µM (inactive) | > 100 µM (inactive) | > 100 µM (inactive) | > 100 µM (inactive) | > 100 µM (inactive) | > 100 µM (inactive) |  | 67.9 µM (inactive) |
| COc1ccc(/C=N/NS(=O)(=O)c2ccc(/C=C3\NC(=O)N(C)C3=O)cc2)cc1 | > 100 µM (inactive) | 70.6 µM (inactive) | 78.3 µM (inactive) | > 100 µM (inactive) | 89.9 µM (inactive) | > 100 µM (inactive) | 40.2 µM (inactive) | > 100 µM (inactive) | 30.3 µM (inactive) | > 100 µM (inactive) | 63.5 µM (inactive) | 92.9 µM (inactive) | > 100 µM (inactive) | > 100 µM (inactive) | 57.8 µM (inactive) | 50.4 µM (inactive) |  |
| CC(=O)Oc1cccc2c1C(=O)CCCC2 | > 100 µM (inactive) | > 100 µM (inactive) | > 100 µM (inactive) | > 100 µM (inactive) | > 100 µM (inactive) | > 100 µM (inactive) | > 100 µM (inactive) | > 100 µM (inactive) | > 100 µM (inactive) | > 100 µM (inactive) | > 100 µM (inactive) | > 100 µM (inactive) |  | > 100 µM (inactive) | > 100 µM (inactive) | > 100 µM (inactive) | > 100 µM (inactive) |
| C#CC1(O)CCCCCCCCC2(CCCCCCCC1)OCCO2 | 17.6 µM (inactive) | 14.7 µM (inactive) |  | 17.3 µM (inactive) | 18.4 µM (inactive) | 16.5 µM (inactive) | 29.7 µM (inactive) | 18.3 µM (inactive) | 17.8 µM (inactive) | 17.5 µM (inactive) |  | 16.8 µM (inactive) | 0.414 µM (active) | 15.5 µM (inactive) | 23.4 µM (inactive) | < 0.01 µM (active) | 2.56 µM (inactive) |
| CCCCCCCC(CC(=O)NC(CO)C(=O)NC(CO)CC(C)C)OC(=O)CC(CCCCCCC)OC(=O)CC(CCCCCCC)OC1OC(C)C(O)C(OC2OC(C)C(OC(C)=O)C(O)C2O)C1O (configuration not stated) | 5.6 µM (inactive) | 11.3 µM (inactive) | 3.7 µM (inactive) | 11.8 µM (inactive) | 14.9 µM (inactive) | 4.84 µM (inactive) | 17.1 µM (inactive) | 3.41 µM (inactive) | 4.22 µM (inactive) | 4.61 µM (inactive) | 2.38 µM (inactive) | 9.53 µM (inactive) |  | 9.14 µM (inactive) | 2.22 µM (inactive) | 15.4 µM (inactive) | 11.7 µM (inactive) |
| O=C1/C(=C/c2cccc([N+](=O)[O-])c2)N=C(c2ccccc2)N1c1nc2c(Cl)cc(Cl)cc2s1 | 31.4 µM (inactive) | 18.7 µM (inactive) | 10.4 µM (inactive) | 27 µM (inactive) | 15.5 µM (inactive) | 19.5 µM (inactive) | 19.7 µM (inactive) | 19.1 µM (inactive) | 35.8 µM (inactive) | 31.1 µM (inactive) | 11.5 µM (inactive) |  | 31.2 µM (inactive) | 24.9 µM (inactive) | 30.1 µM (inactive) | 21.8 µM (inactive) |  |
| CC[C@H](C)[C@H]1NC(=O)[C@@H](NC(=O)[C@@H](CC(C)C)N(C)C(=O)C2CCCN2C(=O)[C@H](C)O)[C@@H](C)OC(=O)[C@@H]2Cc3ccccc3CN2C(=O)[C@@H]2CCCN2C(=O)[C@H](CC(C)C)NC(=O)[C@@H](C)C(=O)[C@H](C(C)C)OC(=O)C[C@@H]1O (some centres not stated) | 0.368 µM (active) | 0.871 µM (active) | 0.106 µM (active) | 0.341 µM (active) | 2.52 µM (inactive) | 0.144 µM (active) | 0.385 µM (active) | 0.258 µM (active) | 0.314 µM (active) | 0.175 µM (active) | 0.17 µM (active) |  | 0.399 µM (active) | 0.323 µM (active) | 0.351 µM (active) |  | 0.443 µM (active) |
| NCCCN(CCCCN(CCCN)Cc1ccc2ccccc2c1)Cc1ccc2ccccc2c1 | 1.62 µM (inactive) | 2.1 µM (inactive) | 27 µM (inactive) | 2.22 µM (inactive) | 1.77 µM (inactive) | 2.54 µM (inactive) |  | 1.7 µM (inactive) | 1.63 µM (inactive) | 3.51 µM (inactive) | 2.01 µM (inactive) | 1.85 µM (inactive) | 2.74 µM (inactive) | 2.42 µM (inactive) | 2.02 µM (inactive) | 2.32 µM (inactive) |  |
| O=C(NC(=S)Nc1ccc(Br)cc1)c1ccc2c(c1)Sc1ccccc1O2 | 51.5 µM (inactive) | 27.4 µM (inactive) | > 100 µM (inactive) | > 100 µM (inactive) |  | > 100 µM (inactive) | 79.8 µM (inactive) | > 100 µM (inactive) | 45.7 µM (inactive) | > 100 µM (inactive) | > 100 µM (inactive) | > 100 µM (inactive) |  | 63.7 µM (inactive) | > 100 µM (inactive) | 31.1 µM (inactive) | > 100 µM (inactive) |
| N#Cc1c(NCCc2ccc(F)cc2)c2ccccc2n2c1nc1ccccc12 | 4.46 µM (inactive) | 21 µM (inactive) | > 100 µM (inactive) | 19.6 µM (inactive) | 10.2 µM (inactive) | 19 µM (inactive) | 5.27 µM (inactive) | 14.9 µM (inactive) | 4.33 µM (inactive) | > 100 µM (inactive) | > 100 µM (inactive) | 13.1 µM (inactive) | 46.8 µM (inactive) | 22.4 µM (inactive) | 40.4 µM (inactive) | 13.7 µM (inactive) |  |
| Cc1cc2c(cc1C)NC1=C(O)C(c3c[nH]c4ccc(COc5ccccc5)cc34)OC1=N2 (configuration not stated) | 30.5 µM (inactive) | 32 µM (inactive) |  | > 100 µM (inactive) | 37.8 µM (inactive) | 96.8 µM (inactive) | 20.4 µM (inactive) | > 100 µM (inactive) | 36 µM (inactive) | > 100 µM (inactive) | 46.9 µM (inactive) | > 100 µM (inactive) | > 100 µM (inactive) | > 100 µM (inactive) | 50 µM (inactive) | 79.8 µM (inactive) | > 100 µM (inactive) |
| Cc1cc2c(cc1-c1cc3c(cc1C)C(C(C)C)=C(O)C(=O)/C3=C\Nc1nc(-c3ccccc3)cs1)/C(=C/Nc1nc(-c3ccccc3)cs1)C(=O)C(O)=C2C(C)C | 21.8 µM (inactive) | 35.6 µM (inactive) | 12.6 µM (inactive) | 23.7 µM (inactive) | 18.2 µM (inactive) | 8.61 µM (inactive) | 15.2 µM (inactive) | 22.2 µM (inactive) | 37.3 µM (inactive) | 11.7 µM (inactive) | 35.7 µM (inactive) | 15.5 µM (inactive) | 33.9 µM (inactive) | 31.9 µM (inactive) | 21.8 µM (inactive) | > 10 µM (inactive) |  |
| COc1ccc(S(=O)(=O)c2nnc(S(=O)(=O)Cc3ccccc3)s2)cc1 | 18.8 µM (inactive) | 18.6 µM (inactive) |  | 17 µM (inactive) | 22.4 µM (inactive) | 20.4 µM (inactive) | 30.3 µM (inactive) | 17.9 µM (inactive) | 21.3 µM (inactive) | 5.92 µM (inactive) | 2.58 µM (inactive) | 27.3 µM (inactive) | 6.59 µM (inactive) | 29.6 µM (inactive) | 14.7 µM (inactive) | 21.6 µM (inactive) | 8.18 µM (inactive) |
| CCOC(=O)c1cc(C2CCN(Cc3ccccc3)C2=O)c(C(=O)C(=[N+]=[N-])C(C)=O)[nH]1 (configuration not stated) | > 100 µM (inactive) | > 100 µM (inactive) | > 100 µM (inactive) | > 100 µM (inactive) | > 100 µM (inactive) | > 100 µM (inactive) | > 100 µM (inactive) | > 100 µM (inactive) | > 100 µM (inactive) | > 100 µM (inactive) | > 100 µM (inactive) | > 100 µM (inactive) | > 100 µM (inactive) | > 100 µM (inactive) | > 100 µM (inactive) | > 100 µM (inactive) |  |
